Laboratory results as given in patent US4108724A, “Method for preparing antibiotic P-2563 using Pseudomonas fluorescens” (Takeda Chemical Industries, Ltd., priority 1975, dated 1978).
≈ marks a conversion by molar mass, not a printed value. Entries after “also recorded” stand apart in the source; their conditions may differ. Structures can show the parent of a compound that is named as a salt.

How the values were obtained:
Solubilities = type: physicochemical; conditions: for Solubilities: insoluble: insoluble solvents; for Solubilities: readily soluble: readily soluble solvents; for Solubilities: sparingly soluble: sparingly soluble solvents
Stability against pH = type: physicochemical; conditions: outside the stable pH range
Bacillus subtilis = assay: Antimicrobial spectrum, minimal inhibitory concentration (Procedure I); type: cell-based; conditions: Procedure I: heart infusion agar, 37° C, 24 hours
Experimental: (§1) In the table, procedures I to III mean the following:
(§2) Procedure I : Cultivated on heart infusion agar medium (Difco) at 37° C for 24 hours.

Escherichia coli = assay: as above; type: cell-based; conditions: Procedure I: heart infusion agar, 37° C, 24 hours
Experimental: as §1, §2

Klebsiella pneumoniae = assay: as above; type: cell-based; conditions: Procedure I: heart infusion agar, 37° C, 24 hours
Experimental: as §1, §2

Proteus mirabilis = assay: as above; type: cell-based; conditions: Procedure I: heart infusion agar, 37° C, 24 hours
Experimental: as §1, §2

Proteus vulgaris = assay: as above; type: cell-based; conditions: Procedure I: heart infusion agar, 37° C, 24 hours
Experimental: as §1, §2

Pseudomonas aeruginosa = assay: as above; type: cell-based; conditions: Procedure I: heart infusion agar, 37° C, 24 hours
Experimental: as §1, §2

Staphylococcus aureus = assay: as above; type: cell-based; conditions: Procedure I: heart infusion agar, 37° C, 24 hours
Experimental: as §1, §2

Mycobacterium species = assay: Antimicrobial spectrum, minimal inhibitory concentration (Procedure II); type: cell-based; conditions: Procedure II: heart infusion agar with 1 % added glycerin, 37° C, 48 hours
Experimental: as §1
(§3) Procedure II : Cultivated on heart infusion agar medium with 1 % added glycerin at 37° C for 48 hours.

Asperigillus fumigatus = assay: Antimicrobial spectrum, minimal inhibitory concentration (Procedure III); type: cell-based; conditions: Procedure III: glucose bouillon agar, 28° C, 96 hours
Experimental: as §1
(§4) Procedure III : Cultivated on glucose bouillon agar medium at 28° C for 96 hours.

Candida albicans = assay: as above; type: cell-based; conditions: Procedure III: glucose bouillon agar, 28° C, 96 hours
Experimental: as §1, §4

Cryptococcus neoformans = assay: as above; type: cell-based; conditions: Procedure III: glucose bouillon agar, 28° C, 96 hours
Experimental: as §1, §4

Microsporum gypseum = assay: as above; type: cell-based; conditions: Nannizzia gypsea; Procedure III: glucose bouillon agar, 28° C, 96 hours
Experimental: as §1, §4

[1] = system: Trichophyton mentagrophytes; assay: as above; type: cell-based; conditions: Procedure III: glucose bouillon agar, 28° C, 96 hours
Experimental: as §1, §4

[2] = Acute toxicity in mice (intravenous); type: in vivo; conditions: for LD50: mouse, in vivo
[3] = system: gram-positive and gram-negative bacteria; assay: Antimicrobial spectrum (general statement); type: cell-based
Experimental: as §2, §3, §4

[4] = system: bacteria of the genus Pseudomonas; assay: Antimicrobial spectrum (general statement); type: cell-based
Experimental: as §2

[5] = Toxicity (general statement)

Compound	Solubilities: insoluble (Solubilities)	Solubilities: readily soluble (Solubilities)	Solubilities: sparingly soluble (Solubilities)	Stability: decomposition (Stability against pH)	MIC (Bacillus subtilis) [µg/mL]	MIC (Escherichia coli) [µg/mL]	MIC (Klebsiella pneumoniae) [µg/mL]	MIC (Proteus mirabilis) [µg/mL]	MIC (Proteus vulgaris) [µg/mL]	MIC (Pseudomonas aeruginosa) [µg/mL]	MIC (Staphylococcus aureus) [µg/mL]	MIC (Mycobacterium species) [µg/mL]	MIC (Asperigillus fumigatus) [µg/mL]	MIC (Candida albicans) [µg/mL]	MIC (Cryptococcus neoformans) [µg/mL]	MIC (Microsporum gypseum) [µg/mL]	MIC [1] [µg/mL]	solubility in water (general statement) (Solubilities)	antimicrobial spectrum [3]	toxicity [5]	other results
CCC(=O)N[C@H]1[C@H](O)[C@@H](O)C(OC(C(O)CN)C(N)C(O)CO)O[C@@H]1CO (stereo partly drawn) [P-2563 (I) monohydrochloric acid salt]	insoluble in chloroform, ethyl acetate, ether, n-hexane and petroleum ether	Readily soluble in water and methanol	sparingly soluble in ethanol, n-propanol, butanol and acetone	decomposes gradually with a loss of activity under strongly basic (above pH 8) and strongly acidic (below pH 3) conditions																	
CC(=O)N[C@H]1[C@H](O)[C@@H](O)C(OC(C(O)CN)C(N)C(O)CO)O[C@@H]1CO (stereo partly drawn) [P-2563 (II)]	insoluble in chloroform, ethyl acetate, ether, n-hexane and petroleum ether	Readily soluble in water and methanol	sparingly soluble in ethanol, n-propanol, butanol and acetone	decmposes gradually with a loss of activity under strongly basic (above pH 8) and strongly acidic (below pH 3) conditions	70 (≈ 183 µM)	50 (≈ 130 µM)	50 (≈ 130 µM)	200 (≈ 522 µM)	100 (≈ 261 µM)	300 (≈ 782 µM)	200 (≈ 522 µM)	200 (≈ 522 µM)	> 500	> 500	> 500	> 500	> 500	water-soluble	broad antimicrobial spectrum, especially against gram-positive and gram-neg ative bacteria; also recorded: inhibitory to gram-positive and gram-negative bacteria	low toxicity	toxicity [2]: extremely low in toxicity; LD50 [2]: > 400 mg/kg; inhibitory to bacteria of the genus Pseudomonas [4]: particularly to bacteria of the genus Pseudomonas
CCC(=O)N[C@H]1[C@H](O)[C@@H](O)C(OC(C(O)CN)C(N)C(O)CO)O[C@@H]1CO (stereo partly drawn) [P-2563 (I)]	insoluble in chloroform, ethyl acetate, ether, n-hexane and petroleum ether	Readily soluble in water, methanol and ethanol	sparingly soluble in n-propanol, butanol and acetone	decomposes gradually with a loss of activity under strongly basic (above pH 8) and strongly acidic (below pH 3) conditions	30 (≈ 75.5 µM)	30 (≈ 75.5 µM)	12.5 (≈ 31.5 µM)	200 (≈ 503 µM)	30 (≈ 75.5 µM)	50 (≈ 126 µM)	50 (≈ 126 µM)	200 (≈ 503 µM)	> 500	> 500	> 500	> 500	> 500	water-soluble	broad antimicrobial spectrum, especially against gram-positive and gram-neg ative bacteria; also recorded: inhibitory to gram-positive and gram-negative bacteria	low toxicity	toxicity [2]: extremely low in toxicity; LD50 [2]: > 400 mg/kg; inhibitory to bacteria of the genus Pseudomonas [4]: particularly to bacteria of the genus Pseudomonas
NCC(O)C(OC1O[C@H](CO)[C@@H](N)[C@H](O)[C@H]1O)C(N)C(O)CO (stereo partly drawn) [P-2563 (III)]	insoluble in chloroform, ethylacetate, ether, n-hexane and petroleum ether	Readily soluble in water and methanol	sparingly soluble in ethanol, n-propanol, butanol and acetone	decomposes gradually under strongly acidic (below pH 3) and strongly basic (above pH 13) conditions														water-soluble	broad antimicrobial spectrum, especially against gram-positive and gram-neg ative bacteria	low toxicity	
